# Numbered stars: 1 amine (or outer) side, 2 acyl side, 3 side chain; on linkers, the order of the positions; unused ones are H or OH. Bridge positions count the residues as written; N and C are the ends. Square brackets hold non-standard residues; d marks the D form. Peptide text beside a SMILES is read from it. I, II: the chains in the order shown. Phe(4-tBu) = CC(C)(C)c1ccc(C[C@H](N)C(=O)O)cc1; Diglycolyl = O=C(COCC(=O)[*:2])[*:1]; NMeR = CN[C@@H](CCCNC(=N)N)C(=O)O; β3hE = N[C@@H](CCC(=O)O)CC(=O)O; NMeK = CN[C@@H](CCCCN)C(=O)O; Pen = CC(C)(S)[C@H](N)C(=O)O
# Legend:
# α4β7 = α4β7 (Homo sapiens, UniProt P13612+P26010); experiment: α4β7-MAdCAM Cell Adhesion Assay (RPMI 8866 human cells); assay type: cell-based; parameters: host or cells: RPMI 8866 human B lymphoblastoid cells; conditions: Table 4-B; read-out: Cell Adhesion α4β7 IC50
# Outline: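 Adhesion read-out: MTT absorbance at 570 nm minus no-cell wells, after three washes. Plates coated with rh MAdCAM-1/Fc received peptide dilutions plus 200,000 RPMI 8866 cells in Mn2+ (1 mM)-supplemented DMEM, 0.1% BSA, HEPES pH 7, incubated 30-45 min, 37 °C.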
# rh integrin α4β7 = target: T1, rh integrin α4β7 (Homo sapiens, UniProt P13612+P26010); experiment: α4β7-MAdCAM Competition ELISA; assay type: binding; conditions: Table 4-B; read-out: ELISA α4β7 IC50
# T1 construct: purchased R&D Systems 5397-A30
# Outline: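 Competition read-out was A450 after anti-human IgG1-HRP and TMB detection of bound recombinant human MAdCAM-1 (10 nM final). Peptides were serially diluted 3-fold from a final 10 μM and equilibrated 1 h at room temperature on nickel-captured α4β7 (800 ng/well). The buffer was Tris pH 7.6 with 1 mM Mn2+ or Mg2+.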
# α4β1 = target: T2, α4β1 (Homo sapiens, UniProt P05556+P13612, DEL729-798); experiment: α4β1-VCAM Competition ELISA; assay type: binding; conditions: Table 4-B; read-out: ELISA_α4β1 IC50
# T2 construct: purchased R&D Systems 5668-A4
# Outline: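 ELISA plates were coated with VCAM-1 Fc at 400 ng/well. Peptide dilutions (highest final 100 μM) and 60 nM α4β1 were incubated 2 h at 37 °C in pH 7.6 Tris buffer containing 1 mM Mn2+ or Mg2+. Integrin retained on the plate was detected by 9F10 antibody, then HRP secondary, with TMB absorbance at 450 nm.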
# T2 sequence (P13612 34-977 limits assumed, stated change not applied): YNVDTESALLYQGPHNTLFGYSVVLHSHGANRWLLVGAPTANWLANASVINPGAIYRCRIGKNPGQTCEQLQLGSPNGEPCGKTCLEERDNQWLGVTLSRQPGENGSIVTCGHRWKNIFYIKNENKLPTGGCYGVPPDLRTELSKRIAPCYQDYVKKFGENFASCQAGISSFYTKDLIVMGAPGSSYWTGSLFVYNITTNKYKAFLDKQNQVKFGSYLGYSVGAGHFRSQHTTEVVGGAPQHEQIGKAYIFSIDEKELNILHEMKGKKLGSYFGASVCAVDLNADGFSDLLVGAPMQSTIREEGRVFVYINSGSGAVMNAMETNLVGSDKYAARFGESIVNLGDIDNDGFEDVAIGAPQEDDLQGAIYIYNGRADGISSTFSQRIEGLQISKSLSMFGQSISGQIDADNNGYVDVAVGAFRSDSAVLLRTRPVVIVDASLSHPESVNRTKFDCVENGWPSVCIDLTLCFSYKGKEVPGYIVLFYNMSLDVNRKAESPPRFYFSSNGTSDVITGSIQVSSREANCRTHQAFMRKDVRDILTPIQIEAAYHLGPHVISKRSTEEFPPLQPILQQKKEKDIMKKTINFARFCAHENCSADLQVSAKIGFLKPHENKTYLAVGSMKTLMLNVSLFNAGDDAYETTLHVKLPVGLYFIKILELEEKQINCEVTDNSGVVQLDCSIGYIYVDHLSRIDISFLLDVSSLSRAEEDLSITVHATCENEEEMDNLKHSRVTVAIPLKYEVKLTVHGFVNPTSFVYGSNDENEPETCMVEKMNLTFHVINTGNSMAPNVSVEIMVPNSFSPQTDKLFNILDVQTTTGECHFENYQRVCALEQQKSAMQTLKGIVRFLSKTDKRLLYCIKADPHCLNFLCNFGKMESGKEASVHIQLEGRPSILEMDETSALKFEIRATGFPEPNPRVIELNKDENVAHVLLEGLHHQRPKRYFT
# T2 sequence (P05556 21-728 limits assumed, stated change not applied): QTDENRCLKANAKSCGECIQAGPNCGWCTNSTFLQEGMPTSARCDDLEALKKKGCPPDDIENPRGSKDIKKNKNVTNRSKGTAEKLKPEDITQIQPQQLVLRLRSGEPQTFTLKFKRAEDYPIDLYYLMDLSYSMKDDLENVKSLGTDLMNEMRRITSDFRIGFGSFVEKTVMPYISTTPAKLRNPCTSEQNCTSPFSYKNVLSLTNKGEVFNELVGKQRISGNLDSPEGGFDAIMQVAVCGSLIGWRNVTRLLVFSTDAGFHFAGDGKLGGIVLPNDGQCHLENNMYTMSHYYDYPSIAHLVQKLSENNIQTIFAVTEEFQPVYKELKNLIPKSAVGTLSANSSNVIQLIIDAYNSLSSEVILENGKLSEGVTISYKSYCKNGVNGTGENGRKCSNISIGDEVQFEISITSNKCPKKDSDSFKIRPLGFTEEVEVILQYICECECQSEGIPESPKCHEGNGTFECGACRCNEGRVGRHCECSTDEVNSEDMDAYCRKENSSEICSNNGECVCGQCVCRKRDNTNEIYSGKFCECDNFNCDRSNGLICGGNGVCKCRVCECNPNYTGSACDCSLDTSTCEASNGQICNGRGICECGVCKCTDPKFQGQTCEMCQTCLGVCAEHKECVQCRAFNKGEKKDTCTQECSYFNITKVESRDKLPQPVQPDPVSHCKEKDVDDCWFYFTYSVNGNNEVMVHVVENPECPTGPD
# T1 sequence (P13612 34-977 limits assumed): as the sequence (P13612 34-977 limits assumed, stated change not applied) above
# T1 sequence (P26010 20-723 limits assumed): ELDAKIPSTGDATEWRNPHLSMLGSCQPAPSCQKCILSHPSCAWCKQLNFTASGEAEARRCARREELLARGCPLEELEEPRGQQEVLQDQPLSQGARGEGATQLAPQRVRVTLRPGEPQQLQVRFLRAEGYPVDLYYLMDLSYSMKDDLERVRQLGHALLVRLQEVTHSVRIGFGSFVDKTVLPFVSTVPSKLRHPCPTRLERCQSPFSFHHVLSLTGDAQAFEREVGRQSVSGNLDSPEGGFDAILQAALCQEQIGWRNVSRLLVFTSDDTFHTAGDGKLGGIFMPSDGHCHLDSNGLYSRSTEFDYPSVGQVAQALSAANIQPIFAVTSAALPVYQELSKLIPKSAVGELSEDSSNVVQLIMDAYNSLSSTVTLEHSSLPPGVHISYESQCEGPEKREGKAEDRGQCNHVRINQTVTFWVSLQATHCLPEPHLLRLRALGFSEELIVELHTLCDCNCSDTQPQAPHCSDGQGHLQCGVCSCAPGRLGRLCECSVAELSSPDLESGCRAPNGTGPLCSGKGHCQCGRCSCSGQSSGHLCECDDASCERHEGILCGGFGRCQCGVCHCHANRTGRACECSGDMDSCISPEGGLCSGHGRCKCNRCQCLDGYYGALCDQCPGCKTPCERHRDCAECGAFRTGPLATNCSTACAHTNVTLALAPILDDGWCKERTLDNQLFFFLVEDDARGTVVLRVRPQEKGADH
# Sequence of α4β7 (P13612 34-1032): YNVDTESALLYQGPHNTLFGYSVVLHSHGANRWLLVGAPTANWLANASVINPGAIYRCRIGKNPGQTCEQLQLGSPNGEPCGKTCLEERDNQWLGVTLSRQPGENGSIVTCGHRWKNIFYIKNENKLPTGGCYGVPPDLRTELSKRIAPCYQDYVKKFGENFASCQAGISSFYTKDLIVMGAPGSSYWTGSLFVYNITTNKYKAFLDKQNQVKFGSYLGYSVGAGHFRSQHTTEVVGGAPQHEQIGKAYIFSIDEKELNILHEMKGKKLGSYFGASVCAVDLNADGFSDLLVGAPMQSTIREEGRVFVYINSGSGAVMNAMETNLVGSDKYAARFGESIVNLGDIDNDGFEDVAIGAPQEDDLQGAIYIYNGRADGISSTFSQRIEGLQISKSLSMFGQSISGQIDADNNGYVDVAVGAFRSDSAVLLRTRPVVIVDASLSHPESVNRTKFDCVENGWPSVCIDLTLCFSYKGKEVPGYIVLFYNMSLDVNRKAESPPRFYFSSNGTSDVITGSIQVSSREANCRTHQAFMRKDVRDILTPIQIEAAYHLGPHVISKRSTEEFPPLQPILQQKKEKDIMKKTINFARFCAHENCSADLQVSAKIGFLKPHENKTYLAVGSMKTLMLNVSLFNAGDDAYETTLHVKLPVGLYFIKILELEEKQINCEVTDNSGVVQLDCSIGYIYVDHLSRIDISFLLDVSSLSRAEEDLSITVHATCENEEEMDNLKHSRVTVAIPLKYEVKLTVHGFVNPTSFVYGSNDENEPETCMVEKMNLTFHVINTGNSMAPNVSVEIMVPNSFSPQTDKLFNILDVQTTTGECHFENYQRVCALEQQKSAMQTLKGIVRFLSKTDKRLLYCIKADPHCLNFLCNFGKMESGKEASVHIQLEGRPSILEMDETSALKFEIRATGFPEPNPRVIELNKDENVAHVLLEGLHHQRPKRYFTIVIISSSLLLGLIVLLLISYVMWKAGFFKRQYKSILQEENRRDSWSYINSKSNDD
# Sequence of α4β7 (P26010 20-798): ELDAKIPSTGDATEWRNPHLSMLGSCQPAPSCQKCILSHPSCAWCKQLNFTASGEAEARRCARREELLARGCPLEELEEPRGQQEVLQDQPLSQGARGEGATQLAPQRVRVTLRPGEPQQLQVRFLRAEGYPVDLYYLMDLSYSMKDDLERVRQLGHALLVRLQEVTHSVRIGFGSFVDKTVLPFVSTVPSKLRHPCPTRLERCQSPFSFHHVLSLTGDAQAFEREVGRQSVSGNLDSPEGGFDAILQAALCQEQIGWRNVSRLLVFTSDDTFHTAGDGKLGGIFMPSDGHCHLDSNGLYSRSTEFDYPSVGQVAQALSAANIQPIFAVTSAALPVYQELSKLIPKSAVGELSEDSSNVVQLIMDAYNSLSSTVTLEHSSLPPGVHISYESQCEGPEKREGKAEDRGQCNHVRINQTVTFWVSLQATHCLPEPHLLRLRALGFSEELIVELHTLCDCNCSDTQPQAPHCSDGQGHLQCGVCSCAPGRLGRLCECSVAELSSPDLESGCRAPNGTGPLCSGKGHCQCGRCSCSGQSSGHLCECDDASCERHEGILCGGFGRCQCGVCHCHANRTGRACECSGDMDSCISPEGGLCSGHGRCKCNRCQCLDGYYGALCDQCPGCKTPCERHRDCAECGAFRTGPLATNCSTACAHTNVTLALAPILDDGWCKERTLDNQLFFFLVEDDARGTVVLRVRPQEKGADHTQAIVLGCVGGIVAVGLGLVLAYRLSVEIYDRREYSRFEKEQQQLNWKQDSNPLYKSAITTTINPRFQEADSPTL
smiles,measurement,setting,value
"CC(=O)N[C@@H]1C(=O)N(C)[C@@H](CCCNC(=N)N)C(=O)N[C@@H](CO)C(=O)N[C@@H](CC(=O)O)C(=O)N[C@@H]([C@@H](C)O)C(=O)N[C@@H](CC(C)C)C(=O)N[C@H](C(=O)N[C@@H](Cc2c[nH]c3ccccc23)C(=O)N[C@H](CCCCNC(=O)COCC(=O)NCCCC[C@@H](NC(=O)[C@H](Cc2c[nH]c3ccccc23)NC(=O)[C@H]2NC(=O)[C@H](CC(C)C)NC(=O)[C@H]([C@@H](C)O)NC(=O)[C@H](CC(=O)O)NC(=O)[C@H](CO)NC(=O)[C@H](CCCNC(=N)N)N(C)C(=O)[C@@H](NC(C)=O)C(C)(C)SSC2(C)C)C(N)=O)C(N)=O)C(C)(C)SSC1(C)C [compound 209, (Ac-Pen-N-Me-R-S-D-T-L-Pen-W-k-NH2)2-DIG] (I: Ac-[Pen][NMeR]SDTL[Pen]W[dK]-NH2 / II: Ac-[Pen][NMeR]SDTL[Pen]W[dK]-NH2; disulfide I:1-I:7, II:1-II:7 (inferred); linker I:9-II:9 via Diglycolyl (inferred))",IC50,α4β7,24 nM
same,IC50,rh integrin α4β7,2.3 nM
same,IC50,α4β1,368 nM
"CC(=O)N[C@@H]1C(=O)N(C)[C@@H](CCCNC(=N)N)C(=O)N[C@@H](CO)C(=O)N[C@@H](CC(=O)O)C(=O)N[C@@H]([C@@H](C)O)C(=O)N[C@@H](CC(C)C)C(=O)N[C@H](C(=O)N[C@@H](Cc2ccc(C(C)(C)C)cc2)C(=O)N[C@@H](CCC(=O)O)CC(=O)N[C@H](CCCCNC(=O)COCC(=O)NCCCC[C@@H](NC(=O)C[C@H](CCC(=O)O)NC(=O)[C@H](Cc2ccc(C(C)(C)C)cc2)NC(=O)[C@H]2NC(=O)[C@H](CC(C)C)NC(=O)[C@H]([C@@H](C)O)NC(=O)[C@H](CC(=O)O)NC(=O)[C@H](CO)NC(=O)[C@H](CCCNC(=N)N)N(C)C(=O)[C@@H](NC(C)=O)C(C)(C)SSC2(C)C)C(N)=O)C(N)=O)C(C)(C)SSC1(C)C [compound 218, [Ac-Pen-(N-Me-Arg)-Ser-Asp-Thr-Leu-Pen-Phe(4-tBu)-(β-homoGlu)-(D-Lys)-NH2]2-DIG] (I: Ac-[Pen][NMeR]SDTL[Pen][Phe(4-tBu)][β3hE][dK]-NH2 / II: Ac-[Pen][NMeR]SDTL[Pen][Phe(4-tBu)][β3hE][dK]-NH2; disulfide I:1-I:7, II:1-II:7; linker I:10-II:10 via Diglycolyl)",IC50,α4β7,0.78 nM
same,IC50,rh integrin α4β7,2.8 nM
same,IC50,α4β1,490 nM
"CC(=O)N[C@@H]1C(=O)N(C)[C@@H](CCCNC(=N)N)C(=O)N[C@@H](CO)C(=O)N[C@@H](CC(=O)O)C(=O)N[C@@H]([C@@H](C)O)C(=O)N[C@@H](CC(C)C)C(=O)N[C@H](C(=O)N[C@@H](Cc2c[nH]c3ccccc23)C(=O)N[C@@H](CCC(=O)O)C(=O)N(C)[C@@H](CCCCNC(=O)COCC(=O)NCCCC[C@@H](C(N)=O)N(C)C(=O)[C@H](CCC(=O)O)NC(=O)[C@H](Cc2c[nH]c3ccccc23)NC(=O)[C@H]2NC(=O)[C@H](CC(C)C)NC(=O)[C@H]([C@@H](C)O)NC(=O)[C@H](CC(=O)O)NC(=O)[C@H](CO)NC(=O)[C@H](CCCNC(=N)N)N(C)C(=O)[C@@H](NC(C)=O)C(C)(C)SSC2(C)C)C(N)=O)C(C)(C)SSC1(C)C [compound 215, [Ac-Pen-(N-Me-Arg)-Ser-Asp-Thr-Leu-Pen-Trp-Glu-(N-Me-Lys)-NH2]2-DIG] (I: Ac-[Pen][NMeR]SDTL[Pen]WE[NMeK]-NH2 / II: Ac-[Pen][NMeR]SDTL[Pen]WE[NMeK]-NH2; disulfide I:1-I:7, II:1-II:7 (inferred); linker I:10-II:10 via Diglycolyl (inferred))",IC50,α4β7,3 nM
same,IC50,rh integrin α4β7,2.2 nM
same,IC50,α4β1,270 nM
"CC(=O)N[C@H]1CSSC[C@@H](C(=O)NCC(=O)N[C@@H](CCC(=O)O)C(=O)N[C@@H](CCCCN)C(N)=O)NC(=O)[C@H](CC(C)C)NC(=O)[C@H]([C@@H](C)O)NC(=O)[C@H](CC(=O)O)NC(=O)[C@H](CO)NC(=O)[C@H](CCCNC(=N)N)NC1=O [compound 196, Ac-C-R-S-D-T-L-C-G-E-K-NH2] (Ac-CRSDTLCGEK-NH2; disulfide 1-7)",IC50,α4β7,6660 nM
same,IC50,rh integrin α4β7,87 nM
same,IC50,α4β1,4810 nM
